Results taken from ChEMBL document CHEMBL2157914, “Synthesis, anti-inflammatory and antimicrobial evaluation of novel 1-acetyl-3,5-diaryl-4,5-dihydro (1H) pyrazole derivatives bearing urea, thiourea and sulfonamide moieties” (2012).
Converted amounts (≈) assume the structure as drawn. The source made the active and inactive calls. The rule behind the calls is not given here.

How the values were obtained:
THP-1 [1] = assay: Antiinflammatory activity in human THP1 cells assessed as inhibition of LPS-stimulated TNFalpha production at 10 uM incubated for 30 mins prior to LPS-challenge measured 24 hrs post LPS challenge by ELISA; type: functional
Staphylococcus aureus [2] = assay: Antibacterial activity against Staphylococcus aureus MTCC 96 up to 200 ug/mL after 24 hrs by agar well diffusion method; type: functional, organism-based
Aspergillus flavus [3] = assay: Antifungal activity against Aspergillus flavus MTCC 277 up to 200 ug/mL after 2 to 3 days by agar well diffusion method; type: functional, organism-based
Candida albicans [4] = assay: Antifungal activity against Candida albicans MTCC 227 after 2 to 3 days by agar well diffusion method; type: functional
Escherichia coli = assay: Antibacterial activity against Escherichia coli MTCC 443 after 24 hrs by agar well diffusion method; type: functional; conditions: MTCC 443, 24 h
THP-1 [5] = assay: Antiinflammatory activity in human THP1 cells assessed as inhibition of LPS-stimulated IL-6 production at 10 uM incubated for 30 mins prior to LPS-challenge measured 24 hrs post LPS-challenge by ELISA; type: functional
Salmonella typhimurium [6] = assay: Antibacterial activity against Salmonella typhimurium MTCC 98 after 24 hrs by agar well diffusion method; type: functional, Salmonella enterica subsp. enterica serovar Typhimurium; conditions: Salmonella enterica, MTCC 98, 24 h
Bacillus subtilis [7] = assay: Antibacterial activity against Bacillus subtilis MTCC 441 after 24 hrs by agar well diffusion method; type: functional; conditions: MTCC 441, 24 h
Aspergillus niger [8] = assay: Antifungal activity against Aspergillus niger MTCC 281 up to 200 ug/mL after 2 to 3 days by agar well diffusion method; type: functional, organism-based
Fusarium solani [9] = assay: Antifungal activity against Fusarium solani MTCC 350 up to 200 ug/mL after 2 to 3 days by agar well diffusion method; type: functional, organism-based
Salmonella typhimurium [10] = assay: Antibacterial activity against Salmonella typhimurium MTCC 98 up to 200 ug/mL after 24 hrs by agar well diffusion method; type: functional, organism-based; conditions: Salmonella enterica subsp. enterica serovar Typhimurium
Candida albicans [11] = assay: Antifungal activity against Candida albicans MTCC 227 up to 200 ug/mL after 2 to 3 days by agar well diffusion method; type: functional, organism-based
Bacillus subtilis [12] = assay: Antibacterial activity against Bacillus subtilis MTCC 441 up to 200 ug/mL after 24 hrs by agar well diffusion method; type: functional, organism-based
Fusarium solani [13] = assay: Antifungal activity against Fusarium solani MTCC 350 after 2 to 3 days by agar well diffusion method; type: functional
Aspergillus niger [14] = assay: Antifungal activity against Aspergillus niger MTCC 281 after 2 to 3 days by agar well diffusion method; type: functional
Staphylococcus aureus [15] = assay: Antibacterial activity against Staphylococcus aureus MTCC 96 after 24 hrs by agar well diffusion method; type: functional; conditions: MTCC 96, 24 h
Aspergillus flavus [16] = assay: Antifungal activity against Aspergillus flavus MTCC 277 after 2 to 3 days by agar well diffusion method; type: functional

Compound | MIC (Candida albicans [4]) [µg/mL] | MIC (Escherichia coli) [µg/mL] | MIC (Salmonella typhimurium [6]) [µg/mL] | MIC (Bacillus subtilis [7]) [µg/mL] | MIC (Fusarium solani [13]) [µg/mL] | MIC (Aspergillus niger [14]) [µg/mL] | MIC (Staphylococcus aureus [15]) [µg/mL] | MIC (Aspergillus flavus [16]) [µg/mL] | inhibition at 10 µM (THP-1 [1]) [%] | Activity (Staphylococcus aureus [2]) | Activity (Aspergillus flavus [3]) | inhibition at 10 µM (THP-1 [5]) [%] | Activity (Aspergillus niger [8]) | Activity (Fusarium solani [9]) | Activity (Salmonella typhimurium [10]) | Activity (Candida albicans [11]) | Activity (Bacillus subtilis [12])
COc1ccc(C(=O)/C=C/c2ccc([N+](=O)[O-])cc2)cc1OC | 90 (≈ 287 µM) | 80 (≈ 255 µM) | 90 (≈ 287 µM) | 90 (≈ 287 µM) | – | – | – | – | 0 | inactive | inactive | 0 | inactive | inactive | – | – | –
COc1ccc(C2=NN(C(C)=O)C(c3ccc(N)cc3)C2)cc1OC (centres undefined) | – | 90 (≈ 265 µM) | – | – | – | – | – | – | 0 | inactive | inactive | 0 | inactive | inactive | inactive | inactive | inactive
COc1ccc(C2=NN(C(C)=O)C(c3ccc(NC(=O)Nc4ccc(C(F)(F)F)cc4Cl)cc3)C2)cc1OC (centres undefined) | 55 (≈ 98 µM) | 45 (≈ 80.2 µM) | 80 (≈ 143 µM) | 60 (≈ 107 µM) | 20 (≈ 35.7 µM) | 35 (≈ 62.4 µM) | 35 (≈ 62.4 µM) | 20 (≈ 35.7 µM) | 3 | – | – | 8 | – | – | – | – | –
COc1ccc(C2=NN(C(C)=O)C(c3ccc(NC(=O)Nc4ccc(C(C)C)cc4)cc3)C2)cc1OC (centres undefined) | 20 (≈ 40 µM) | 30 (≈ 59.9 µM) | 55 (≈ 110 µM) | 40 (≈ 79.9 µM) | 20 (≈ 40 µM) | 40 (≈ 79.9 µM) | 30 (≈ 59.9 µM) | 20 (≈ 40 µM) | 11 | – | – | 16 | – | – | – | – | –
COc1ccc(C2=NN(C(C)=O)C(c3ccc(NC(=O)Nc4ccccc4C(F)(F)F)cc3)C2)cc1OC (centres undefined) | 80 (≈ 152 µM) | 60 (≈ 114 µM) | 90 (≈ 171 µM) | 90 (≈ 171 µM) | 75 (≈ 142 µM) | 90 (≈ 171 µM) | 75 (≈ 142 µM) | 80 (≈ 152 µM) | 61 | – | – | 80 | – | – | – | – | –
COc1ccc(C2=NN(C(C)=O)C(c3ccc(NC(=S)Nc4ccccc4F)cc3)C2)cc1OC (centres undefined) | 80 (≈ 162 µM) | 55 (≈ 112 µM) | 90 (≈ 183 µM) | 80 (≈ 162 µM) | 90 (≈ 183 µM) | – | 80 (≈ 162 µM) | 90 (≈ 183 µM) | 78 | – | – | 84 | inactive | – | – | – | –

Continued by falling MIC (Escherichia coli), values first:

MIC (Candida albicans [4]) [µg/mL] | MIC (Escherichia coli) [µg/mL] | MIC (Salmonella typhimurium [6]) [µg/mL] | MIC (Bacillus subtilis [7]) [µg/mL] | MIC (Fusarium solani [13]) [µg/mL] | MIC (Aspergillus niger [14]) [µg/mL] | MIC (Staphylococcus aureus [15]) [µg/mL] | MIC (Aspergillus flavus [16]) [µg/mL] | Compound | inhibition at 10 µM (THP-1 [1]) [%] | Activity (Staphylococcus aureus [2]) | Activity (Aspergillus flavus [3]) | inhibition at 10 µM (THP-1 [5]) [%] | Activity (Aspergillus niger [8]) | Activity (Fusarium solani [9]) | Activity (Salmonella typhimurium [10]) | Activity (Candida albicans [11]) | Activity (Bacillus subtilis [12])
90 (≈ 176 µM) | 90 (≈ 176 µM) | 90 (≈ 176 µM) | 90 (≈ 176 µM) | – | – | 90 (≈ 176 µM) | – | COc1ccc(C2=NN(C(C)=O)C(c3ccc(NC(=O)Nc4cccc(Cl)c4F)cc3)C2)cc1OC (centres undefined) | 61 | – | inactive | 76 | inactive | inactive | – | – | –
80 (≈ 159 µM) | 70 (≈ 139 µM) | 90 (≈ 178 µM) | 90 (≈ 178 µM) | – | 95 (≈ 188 µM) | 55 (≈ 109 µM) | 95 (≈ 188 µM) | COc1cccc(NC(=S)Nc2ccc(C3CC(c4ccc(OC)c(OC)c4)=NN3C(C)=O)cc2)c1 (centres undefined) | 11 | – | – | 26 | – | – | – | – | –
80 (≈ 168 µM) | 45 (≈ 94.4 µM) | 80 (≈ 168 µM) | 80 (≈ 168 µM) | 90 (≈ 189 µM) | 80 (≈ 168 µM) | 60 (≈ 126 µM) | 80 (≈ 168 µM) | COc1ccc(C2=NN(C(C)=O)C(c3ccc(NC(=O)Nc4ccccc4F)cc3)C2)cc1OC (centres undefined) | 85 | – | – | 93 | – | – | – | – | –
25 (≈ 44.8 µM) | 30 (≈ 53.7 µM) | 30 (≈ 53.7 µM) | 65 (≈ 116 µM) | 15 (≈ 26.9 µM) | 15 (≈ 26.9 µM) | 30 (≈ 53.7 µM) | 40 (≈ 71.6 µM) | COc1ccc(C2=NN(C(C)=O)C(c3ccc(NS(=O)(=O)c4ccc(Br)cc4)cc3)C2)cc1OC (centres undefined) | 0 | – | – | 0 | – | – | – | – | –
55 (≈ 110 µM) | 30 (≈ 60 µM) | 45 (≈ 90.1 µM) | 35 (≈ 70.1 µM) | 20 (≈ 40 µM) | 20 (≈ 40 µM) | 60 (≈ 120 µM) | 35 (≈ 70.1 µM) | COc1ccc(C2=NN(C(C)=O)C(c3ccc(NC(=S)Nc4ccc(C#N)cc4)cc3)C2)cc1OC (centres undefined) | 0 | – | – | 21 | – | – | – | – | –
30 (≈ 58.6 µM) | 20 (≈ 39.1 µM) | 40 (≈ 78.2 µM) | 20 (≈ 39.1 µM) | 20 (≈ 39.1 µM) | 60 (≈ 117 µM) | 55 (≈ 108 µM) | 20 (≈ 39.1 µM) | COc1ccc(C2=NN(C(C)=O)C(c3ccc(NS(=O)(=O)c4cc(F)ccc4C)cc3)C2)cc1OC (centres undefined) | 0 | – | – | 0 | – | – | – | – | –
